Data: patent US11291208B2, “Ternary herbicide combinations” (Bayer CropScience Aktiengesellschaft, priority 2013, dated 2022)

Key:
Format in all cases: in vivo
CENCY: Centaurea Cyanus = test: Herbicidal action, outdoor/field trials, post-emergence; conditions: crop TRZAW, field trials
Description: (§1) The seeds or rhizome pieces of typical harmful plants were planted and grown under natural outdoor conditions. After the harmful plants had emerged, they were treated, as a rule at the 2- to 4-leaf stage, with various dosages of the compositions according to the invention at a water application rate of […] (converted).
(§2) After the treatment (approx. 4-6 weeks after application), the herbidical activity of the active compounds or active compound mixtures was scored visually by comparing the treated plots with the untreated control plots. Damage and development of all above-ground parts of the plants was recorded. Scoring was done on a percentage scale (100% action=all plants dead; 50% action=50% of the plants and green plant parts dead; 0% action=no discernible action=like control plot). The score figures of in each case 4 plots were averaged.
(§3) The growth stages of the different weed species are indicated according to the BBCH monograph “Growth stages of mono- and dicotyledonous plants”, 2nd edition, 2001, ed. Uwe Meier, Federal Biological Research Centre for Agriculture and Forestry (Biologische Bundesanstalt für Land and Forstwirtschaft). The respective BBCH stages are indicated in brackets for the different weed species.
(§4) The dose rates of herbicidal ingredients used in each case are indicated for the respective active ingredient in brackets and refer to the amount of active ingredient per hectare (g/ha).
(§5) The herbicidal effects observed for the herbicide (mixtures) are indicated in % Activity against the respective weed. The % Damage indicated refers to the maximum damage observed in the respective crop.
(§6) The results of the treatments are reflected in the Tables below, and the activity measured for the independent use of the active compounds (A+B)+(C) is stated in brackets. The treatments were carried out using Mesosulfuron-methyl (A1-1) or Mesosulfuron-methyl-sodium (A1-2) as component (A), and Iodosulfuron-methyl (B1-1) or Iodosulfuron-methyl-sodium (B1-2) as component (B). The results of the treatments in these cases were essentially identical.

[1] = test system: FUMOF: Fumaria officinalis; test: as above; conditions: HALXF 276.5 g/ha, crop TRZAW, field trials
Description: as §1, §2, §3, §4, §5, §6

GALAP: Galium aparine = test: as above; conditions: crop TRZAW, field trials
Description: as §1, §2, §3, §4, §5, §6

PAPRH: Papaver rhoeas = test: as above; conditions: field trials
Description: as §1, §2, §3, §4, §5, §6

[2] = test system: TRZAW: Triticum aestivum (soft wheat); test: Crop damage in field trials (maximum damage observed in the crop)
Description: as §1, §2, §4, §5, §6

BROST: Bromus sterilis = test: Herbicidal action, outdoor/field trials, post-emergence; conditions: PXD 60 g/ha, BROST (25), crop TRZAW, field trials
Description: as §1, §2, §3, §4, §5, §6

[3] = test system: GERDI: Geranium dissectum; test: as above; conditions: crop TRZAW, field trials
Description: as §1, §2, §3, §4, §5, §6

[4] = test system: VERHE: Veronica hederifolia; test: as above; conditions: PXD 60 g/ha, VERHE (71), crop TRZAW, field trials
Description: as §1, §2, §3, §4, §5, §6

VERPE: Veronica persica = test: as above; conditions: crop TRZAW, field trials
Description: as §1, §2, §3, §4, §5, §6

LOLRI: Lolium rigidum = test: as above
Description: as §1, §2, §3, §4, §5, §6

AVEST: Avena sterilis = test: as above; conditions: TCM 7.5 g/ha, AVEST (23), crop TRZDU, field trials
Description: as §1, §2, §3, §4, §5, §6

[5] = test system: LAMAM: Lamium amplexicaule; test: as above; conditions: TCM 7.5 g/ha, LAMAM (32), crop TRZAW, field trials
Description: as §1, §2, §3, §4, §5, §6

LAMPU: Lamium purpureum = test: as above; conditions: TCM 7.5 g/ha, LAMPU (61), crop TRZAW, field trials
Description: as §1, §2, §3, §4, §5, §6

[6] = test system: LOLMU: Lolium multiflorum; test: as above; conditions: TCM 7.5 g/ha, LOLMU (23), crop TRZDU, field trials
Description: as §1, §2, §3, §4, §5, §6

[7] = test system: MATIN: Matricaria inodora; test: as above; conditions: Tripleurospermum inodorum, TCM 7.5 g/ha, MATIN (19), crop TRZAW, field trials
Description: as §1, §2, §3, §4, §5, §6

PICEC: Picris echioides = test: as above; conditions: Helminthotheca echioides, TCM 7.5 g/ha, PICEC (22), crop TRZDU, field trials
Description: as §1, §2, §3, §4, §5, §6

VIOAR: Viola arvensis = test: as above; conditions: TCM 7.5 g/ha, VIOAR (15), crop TRZAW, field trials
Description: as §1, §2, §3, §4, §5, §6

[8] = test system: TRZDU: Triticum aestivum (durum wheat); test: Crop damage in field trials (maximum damage observed in the crop); conditions: TCM 7.5 g/ha
Description: as §1, §2, §4, §5, §6

SMILES: COc1c(Cl)ccc(-c2cc(N)c(Cl)c(C(=O)O)n2)c1F [HALXF, 4-amino-3-chloro-6-(4-chloro-2-fluoro-3-methoxyphenyl)-2-pyridinecarboxylic acid]
- inhibition at 276.5 g/ha (CENCY: Centaurea Cyanus; HALXF 276.5 g/ha, CENCY): 45%
- inhibition at 276.5 g/ha [1]: 85%
- inhibition at 276.5 g/ha (GALAP: Galium aparine; HALXF 276.5 g/ha, GALAP): 73%
- inhibition at 276.5 g/ha (PAPRH: Papaver rhoeas; HALXF 276.5 g/ha, PAPRH, crop TRZAW): 75%
- % Damage ([2]; HALXF 276.5 g/ha, listed as CENCY): 0%
- % Damage ([2]; HALXF 276.5 g/ha, listed as FUMOF): 0%
- % Damage ([2]; HALXF 276.5 g/ha, listed as GALAP): 0%
- % Damage ([2]; HALXF 276.5 g/ha, listed as PAPRH): 0%

SMILES: CCc1cc(C)cc(CC)c1-c1c(OC(=O)C(C)(C)C)n2n(c1=O)CCOCC2 [PXD, 8-(2,6-diethyl-4-methylphenyl)-1,2,4,5-tetrahydro-7-oxo-7H-pyrazolo[1,2-d][1,4,5]oxadiazepin-9-yl 2,2-dimethylpropanoate]
- inhibition at 60 g/ha (BROST: Bromus sterilis): 0%
- inhibition at 60 g/ha (CENCY: Centaurea Cyanus; PXD 60 g/ha, CENCY (38)): 60%
- inhibition at 60 g/ha ([3]; PXD 60 g/ha, GERDI (19)): 30%
- inhibition at 60 g/ha [4]: 13%
- inhibition at 60 g/ha (VERPE: Veronica persica; PXD 60 g/ha, VERPE (31)): 0%
- % Damage ([2]; PXD 60 g/ha, listed as BROST (25)): 0%
- % Damage ([2]; PXD 60 g/ha, listed as CENCY (38)): 15%
- % Damage ([2]; PXD 60 g/ha, listed as GERDI (19)): 4%
- % Damage ([2]; PXD 60 g/ha, listed as VERHE (71)): 0%
- % Damage ([2]; PXD 60 g/ha, listed as VERPE (31)): 0%

SMILES: COc1cc(OC)n2nc(NS(=O)(=O)c3c(C(F)(F)F)ccnc3OC)nc2n1 [PYX, N-(5,7-dimethoxy[1,2,4]triazolo[1,5-a]pyrimidin-2-yl)-2-methoxy-4-(trifluoromethyl)-3-pyridinesulfonamide]
- inhibition at 17 g/ha (LOLRI: Lolium rigidum; PYX 17 g/ha, LOLRI (10)): 20%

SMILES: COC(=O)c1csc(C)c1S(=O)(=O)NC(=O)n1nc(OC)n(C)c1=O [TCM, methyl 4-[(4,5-dihydro-3-methoxy-4-methyl-5-oxo-1H-1,2,4-triazol-1-yl)carbonylsulfamoyl]-5-methylthiophene-3-carboxylate]
- inhibition at 7.5 g/ha (AVEST: Avena sterilis): 33%
- inhibition at 7.5 g/ha (CENCY: Centaurea Cyanus; TCM 7.5 g/ha, CENCY (19)): 38%
- inhibition at 7.5 g/ha (GALAP: Galium aparine; TCM 7.5 g/ha, GALAP (23)): 37%
- inhibition at 7.5 g/ha ([3]; TCM 7.5 g/ha, GERDI (29)): 63%
- inhibition at 7.5 g/ha [5]: 68%
- inhibition at 7.5 g/ha (LAMPU: Lamium purpureum): 70%
- inhibition at 7.5 g/ha [6]: 43%
- inhibition at 7.5 g/ha (LOLRI: Lolium rigidum; TCM 7.5 g/ha, LOLRI (29), crop TRZDU, field trials): 52%
- inhibition at 7.5 g/ha [7]: 20%
- inhibition at 7.5 g/ha (PAPRH: Papaver rhoeas; TCM 7.5 g/ha, PAPRH (15), crop TRZDU): 70%
- inhibition at 7.5 g/ha (PICEC: Picris echioides): 69%
- inhibition at 7.5 g/ha (VERPE: Veronica persica; TCM 7.5 g/ha, VERPE): 10%
- inhibition at 7.5 g/ha (VIOAR: Viola arvensis): 38%
- % Damage ([2]; TCM 7.5 g/ha, listed as CENCY (19)): 0%
- % Damage ([2]; TCM 7.5 g/ha, listed as CENCY (19), Table 2B): 0%
- % Damage ([2]; TCM 7.5 g/ha, listed as GALAP (23)): 0%
- % Damage ([2]; TCM 7.5 g/ha, listed as GALAP (23), Table 2B): 0%
- % Damage ([2]; TCM 7.5 g/ha, listed as GERDI (29)): 0%
- % Damage ([2]; TCM 7.5 g/ha, listed as GERDI (29), Table 2B): 0%
- % Damage ([2]; TCM 7.5 g/ha, listed as LAMAM (32)): 1%
- % Damage ([2]; TCM 7.5 g/ha, listed as LAMAM (32), Table 2B): 1%
- % Damage ([2]; TCM 7.5 g/ha, listed as LAMPU (61)): 1%
- % Damage ([2]; TCM 7.5 g/ha, listed as LAMPU (61), Table 2B): 1%
- % Damage ([2]; TCM 7.5 g/ha, listed as MATIN (19)): 0%
- % Damage ([2]; TCM 7.5 g/ha, listed as MATIN (19), Table 2B): 0%
- % Damage ([2]; TCM 7.5 g/ha, listed as VERPE): 1%
- % Damage ([2]; TCM 7.5 g/ha, listed as VERPE, Table 2B): 1%
- % Damage ([2]; TCM 7.5 g/ha, listed as VIOAR (15)): 0%
- % Damage ([2]; TCM 7.5 g/ha, listed as VIOAR (15), Table 2B): 0%
- % Damage ([8]; listed as AVEST (23)): 0%
- % Damage ([8]; listed as AVEST (23), Table 1B): 0%
- % Damage ([8]; listed as LOLMU (23)): 0%
- % Damage ([8]; listed as LOLMU (23), Table 1B): 0%
- % Damage ([8]; listed as LOLRI (29)): 5%
- % Damage ([8]; listed as LOLRI (29), Table 1B): 5%
- % Damage ([8]; listed as PAPRH (15)): 0%
- % Damage ([8]; listed as PAPRH (15), Table 1B): 0%
- % Damage ([8]; listed as PICEC (22)): 5%
- % Damage ([8]; listed as PICEC (22), Table 1B): 5%
